In patent US5994323A (priority 1997, dated 1999):

How the values were obtained:
[1] = test system: zinc precipitated Aβ; assay: Chelating ability: washing of zinc-aggregated synthetic Aβ on nylon membrane, anti-Aβ 6E10 / ECL; assay type: biochemical; conditions: 10 ng synthetic Aβ aggregated with 25 μM ZnCl; wash with TBS containing 2 μM chelator; 100% for TBS alone
Experimental: Samples of 10 ng synthetic Aβ were placed in microtitre wells and caused to aggregate by the addition of 25 μM ZnCl. The aggregates were then transferred to a 0.2 μm nylon membrane by filtration. […] The membrane was fixed, probed with the anti Aβ monoclonal antibody 6E10 and developed for exposure to ECL-film. The transmittance of the ECL-film was measured and the relative signal strength calculated based on 100% for TBS alone.

[2] = 1H NMR study of the interaction of vitamin B12 with clioquinol glucuronide; assay type: binding; conditions: 2.6 mM vitamin B12 + 10 mM clioquinol glucuronide, buffered water pH 6.5, 20° C.
Experimental: Three different solutions were prepared and their ^1 H NMR spectra were recorded in a DRX 400 MHz spectrophotometer at 20° C. Solution a) contained free vitamin B12 (hydroxycobalamin) in a concentration of 2.6 mM.
In FIGS. 1A-1C the spectra of the three solutions a, b and c are presented for the aromatic region (5.5-9.8 ppm). The differences are quite small but obvious in the expansion shown of FIGS. 2A-2C and FIGS. 3B-3C respectively.

[3] = Solubility in water / aqueous solutions; assay type: physicochemical
[4] = assumed value; 1:1 mixtures of decane/clioquinol with PBS pH 7.4; cited from earlier work
[5] = test system: zinc precipitated Aβ; assay: Resolubilization of zinc-aggregated Aβ in TBS; assay type: biochemical; conditions: 2.5 μM Aβ in TBS pH 7.4, 30 μM zinc (43% in solution), then 120 μM clioquinol; 95% soluble before zinc
Experimental: The ability of clioquinol to resolubilize zinc-aggregated Aβ was assessed. A 2.5 μM solution of Aβ in TBS at a pH of 7.4 was prepared. 95% of the Aβ was maintained in a soluble state.

[6] = Dissolution of clioquinol in n-decane and partition into PBS pH 7.4; assay type: physicochemical
Experimental: The resolubilization of amyloid aggregates by clioquinol was studied. […] The undissolved material was allowed to settle. […] 100 ml of the (light yellow) supernatant was agitated together with 100 ml of PBS pH 7.4 and the phases allowed to separate. The PBS (lower phase) was collected and filtered to remove the residue which formed at the phase interface upon extraction with the organic solvent.

[7] = injected preparations, dosages of 10-20 mg/kg; cited from earlier work
[8] = test system: vitamin B12 ([57Co]-cyanocobalamine); assay: Influence of clioquinol on vitamin B12 in vivo: tissue radioactivity after [57Co]-cyanocobalamine injection; conditions: mice, clioquinol 50 mg/kg/day injected for three days, then [57Co]-cyanocobalamine, sacrificed after two days, ±SEM
Experimental: After three days, all of the mice were injected with [^57 Co]-cyanocobalamine. After two days, the animals were sacrificed, and the brain, liver and kidney were dissected and counted in a gamma-counter as thousand cpm/g tissue (wet weight)±SEM. The radioactivities in each of the groups are stated in Table 1 below: […]

[9] = test system: Aβ; assay: Resolubilization of amyloid aggregates in Alzheimer's disease brain homogenates (Western blot of supernatants); assay type: biochemical, human; conditions: frontal lobe neocortex, clioquinol/PBS at 100%, 10% and 1% (100%=800 nM)
Experimental: Brain specimens were obtained for which a histopathological diagnosis of Alzheimer's disease was confirmed.
The homogenates were centrifuged at 150,000 xg for thirty minutes and the supernatants collected and held on ice (fraction "S"). The pellets were subjected to an identical homogenization and centrifugation regime and the resulting supernatants again collected (fraction "P").
1 ml of each supernatant was treated with 200 μl of ice cold 10% TCA to precipitate total protein including Aβ. The resulting pellet was washed once with 100% ethanol and resuspended in 100 μl of TBS (tris 20 mM, NaCl 150 mM, pH 7.4).
7.5 μl of sample (S or P) was boiled for 5 min. with an equal volume of tris-tricine sample buffer containing 4% SDS and loaded onto a Novex pre-cast 10-20% tris-tricine gel followed by Western transfer onto nitrocellulose. Signal for Aβ was detected using mAb WO2 (raised against residues 5-16 of Aβ) and visualized using ECL. The sensitivity of the detection system is 5-10 pg. […]

| Compound | Relative signal strength of Aβ remaining on membrane [1] [%] | Interaction with vitamin B12 (shift of 1H NMR resonances) [2] | Solubility in water / aqueous solutions [3] | Partitioning coefficient with PBS [4] | Soluble Aβ after addition to zinc precipitated Aβ [5] [%] | Fraction of clioquinol dissolved in n-decane ([6]; 5.3 g suspended in 200 ml n-decane) [%] | Concentration of clioquinol in the PBS ([6]; PBS pH 7.4 extract of the n-decane supernatant, calculated from assumed 2% dissolution and partitioning coefficient) [nM] | Concentration in the brain [7] [μl/ml] | Radioactivity in brain ([8]; control 9.4 ± 0.9) | Radioactivity in liver ([8]; control 97 ± 8) | Radioactivity in kidney ([8]; control 895 ± 207) | Solubilization of Aβ from Alzheimer's disease brain homogenate [9] |
| --- | --- | --- | --- | --- | --- | --- | --- | --- | --- | --- | --- | --- |
| O=C(O)CN(CCN(CC(=O)O)CC(=O)O)CC(=O)O [EDTA] | 66 | – | – | – | – | – | – | – | – | – | – | – |
| COC(=O)[C@H]1O[C@@H](Oc2c(I)cc(Cl)c3cccnc23)[C@H](OC(C)=O)[C@@H](OC(C)=O)[C@@H]1OC(C)=O [clioquinol glucuronide, methyl (5-chloro-7-iodo-quinolyl-2',3',4'tri-O-acetyl-glucopyranosid)uronate] | – | interaction | soluble in water | – | – | – | – | – | – | – | – | – |
| Oc1c(I)cc(Cl)c2cccnc12 [clioquinol, 5-chloro-7-iodo-8 hydroxyquinoline] | – | – | cannot be dissolved in aqueous solutions | 1/1750 | 70 | 2 | 800 | ~20 | 8.4 ± 1.5 thousand cpm/g tissue (wet wei | 85 ± 21 thousand cpm/g tissue (wet wei | 252 ± 61 thousand cpm/g tissue (wet wei | effective in promoting the solubilization of Aβ |
